Patent US20020119958A1, “Therapeutic agent for hyperlipidemia” (priority 2001, published 2002)

Tests used:
HepG2 cells = assay: Excretion of bile acid from HepG2 cells; type: cell-based, human; settings: compound A 1, 10 μM, 24 h
Procedure: The cultured HepG2 cells were plated in a 24-well culture dish at 1.5×10^5 cells/ml, 0.5 ml/well. Four days later, the medium was exchanged to a new one and ^14C-labeled cholesterol (18.5 kBq/well) was added, which was cultured for 24 h (bile acid in the cells was labeled thereby). After the culture, the medium was exchanged to a new one and compound A (final concentration 1, 10 μM) was added. After 24 hours of culture, the medium was recovered and the amount of bile acid excreted into the medium was measured to examine the influence of compound A on bile acid excretion. The amount of excreted bile acid was corrected based on the protein amount of the cell.

LXR = assay: Luciferase reporter gene transcription via LXR (test for comparison); type: cell-based; settings: up to the concentration of 10 μM
Procedure: (§1) A plasmid for compulsory expression of FXR, a luciferase reporter plasmid and a β-galactosidase expression plasmid for correction of gene transfer were introduced into cultured mammalian cells (293 or CV-1) by conventional methods. The cells after gene transfer were treated with CDCA and compound A. Cell lysates were prepared from the cells that underwent treatment with various concentrations of compound A (0.1-10 μM), and a luciferase activity (corrected based on β-galactosidase activity) in the cell lysate was expressed as an FXR dependent transcriptional activity. In the absence of a drug, the luciferase activity value upon activation with CDCA was taken as 100% and the value in the absence of a ligand was taken as 0%. For a test for comparison, a similar experiment was conducted using an LXR expression plasmid instead of the FXR expression plasmid.

[1] = target: T1, FXR ligand binding domain (FXR-LBD) (Homo sapiens, UniProt Q96RI1); assay: FRET assay of CDCA-induced binding of FXR-LBD to coactivator SRC-1; type: biochemical; settings: in the presence of CDCA; compound A 1-50 μM; 4° C., 12 h
T1 construct: GST
T1 sequence (Q96RI1 262-486 limits assumed): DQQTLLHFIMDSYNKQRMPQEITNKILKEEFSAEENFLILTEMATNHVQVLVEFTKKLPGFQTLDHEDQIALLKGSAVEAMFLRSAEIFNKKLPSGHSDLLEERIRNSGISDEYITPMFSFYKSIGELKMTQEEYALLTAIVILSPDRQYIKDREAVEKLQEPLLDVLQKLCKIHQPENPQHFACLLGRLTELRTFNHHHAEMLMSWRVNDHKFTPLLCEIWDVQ
Procedure: (§2) An Eu-labeled FXR ligand binding domain (FXR-LBD) and an APC-labeled coactivator SRC-1 were mixed to the final concentration of 10 nM and 100 nM, respectively, in a buffer [100 mM Hepes (pH 7.6), 0.125% CHAPS, 125 mM NaF] in the presence of ligand CDCA. Thereto were added various concentrations of compound A (1-50 μM), and the mixture was allowed to react at 4° C. for 12 h. After the reaction, it was exposed to an excitation light at 337 nm and the fluorescence at 665 nm and 620 nm was measured, based on which the fluorescence ratio of 665 nm/620 nm was taken as an FRET fluorescence intensity.

[2] = Concentration in blood after single oral administration to hamster; type: in vivo; settings: male, GS, single oral 100 mg/kg, serum
Procedure: The compound A was forcibly given to hamster by single oral administration and measured for shifts in the concentration in blood. The test conditions were as follows. animal: male GS hamster (purchased from Japan SLC), 9 weeks old administration liquid: 20 mg/ml 0.5% methylcellulose suspension diet: not fasted dose: 100 mg/5 ml/kg (p.o.) administration: forcible single oral administration using oral sound blood sampling time: 5, 15, 30, 60, 180, 360 min after administration serum preparation: blood was drawn from the orbital vein and centrifuged using a Separapid tube (coagulation promoting spitz tube containing serum separating agent) to give serum.
An internal standard substance (CV-5386, 0.1 μg) was added to serum (0.1 ml) and admixed. Methanol (0.3 ml) was added and the mixture was stirred. The mixture was centrifuged at 10,000 rpm (FORCE-7 Denver Instrument Company) for 2 min and the resulting supernatant was subjected to centrifugal filtration using Centricut. The obtained filtrate was analyzed by LC-ESI-MS/MS.

[3] = Serum total cholesterol in hamsters on high fat diet; type: in vivo, hamster; settings: 14 days, last day of the test
Procedure: (§3) Male Syrian Golden Hamsters (7 weeks old) were purchased from Japan SLC and preliminarily reared for 2 weeks under a high fat diet load (10% coconut oil, 0.12% cholesterol). After the preliminary rearing, the high fat diet was fed to the hamsters while administering compound A. The drug was prepared into a 0.5% methylcellulose suspension, and forcibly administered orally at 30 or 100 mg/kg/day for 14 consecutive days. At 4, 7, 11 and 14 days from the drug administration, blood was drawn from the orbital vein of the animal and total serum cholesterol value was measured. As a control, a drug non-administration group was prepared and treated similarly, which was followed by measurement of the serum total cholesterol value. At the final day of the test, the liver and the ileum were removed from the animals, from which the total RNA was prepared.
The blood was drawn from the orbital vein of the animals and centrifuged (3000 rpm, 15 min) to prepare the serum. The total cholesterol concentration of the serum was determined by the enzyme method.

FXR = target: T2, FXR (Homo sapiens, UniProt Q96RI1); assay: CDCA-induced luciferase reporter gene transcription via FXR; type: cell-based; settings: 293 or CV-1 cells treated with CDCA; compound A 0.1-10 μM
T2 construct: expressed in transfected cells; host or cells: 293 or CV-1
T2 sequence (Q96RI1 1-486): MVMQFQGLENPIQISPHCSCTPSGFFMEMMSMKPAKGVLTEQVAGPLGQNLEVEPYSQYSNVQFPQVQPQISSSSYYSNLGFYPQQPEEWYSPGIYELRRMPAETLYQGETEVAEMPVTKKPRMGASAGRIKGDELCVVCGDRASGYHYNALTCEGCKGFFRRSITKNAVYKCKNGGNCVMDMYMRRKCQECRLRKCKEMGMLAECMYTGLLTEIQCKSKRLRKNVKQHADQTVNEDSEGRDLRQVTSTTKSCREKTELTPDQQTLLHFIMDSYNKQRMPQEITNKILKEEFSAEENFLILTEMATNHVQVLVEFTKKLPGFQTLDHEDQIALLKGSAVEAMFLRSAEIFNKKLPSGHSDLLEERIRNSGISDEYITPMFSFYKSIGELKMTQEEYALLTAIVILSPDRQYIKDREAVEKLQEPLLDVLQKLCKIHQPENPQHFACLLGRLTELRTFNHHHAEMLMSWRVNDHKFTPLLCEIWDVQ
Procedure: as §1

[4] = test system: I-BABP gene expression in Caco-2 cells; assay: I-BABP mRNA in Caco-2 cells by Northern blot; type: cell-based, human; settings: 100 μM CDCA, compound A at 10 μM
Procedure: The human colon carcinoma derived cell line, Caco-2, is a cell line differentiated like the small intestine and expresses the I-BABP gene. The I-BABP gene expression in Caco-2 cells is promoted by CDCA and an expression control system of I-BABP gene by FXR is considered to be also present in Caco-2 cells (Makishima, M. et al. Science 284, 1362-5 (1999)). Thus, an action on the I-BABP gene expression of compound A as an FXR antagonist was tested using Caco-2 cells.
The Caco-2 cells were cultured in the presence of 100 μM CDCA, and the expression of I-BABP gene was induced. Thereto was added compound A and changes in the I-BABP gene expression level were examined by measuring the amount of I-BABP mRNA by Northern blot analysis.

[5] = test system: CYP7A gene expression in HepG2 cells; assay: CYP7A mRNA in HepG2 cells by quantitative RT-PCR; type: cell-based, human; settings: CDCA 20 μM + compound A 10 μM, 37° C., 16 h
Procedure: (§4) The cultured HepG2 cells were treated under the following three conditions at 37° C. for 16 h.
(§5) 1) no treatment with CDCA, no treatment with compound A
(§6) 2) treatment with CDCA (20 μM), no treatment with compound A
3) treatment with CDCA (20 μM), treatment with compound A (10 μM)
RNA was prepared from the cells after the treatment and the amount of CYP7A mRNA contained in the RNA was measured by quantitative RT-PCR. For the quantitative RT-PCR, TaqMan One Step Gold reverse transcriptase PCR kit of Applied Biosystems/PerkinElmer was used. For quantification, the following primers (i)-(iii) derived from human CYP7A gene sequence were used.

[6] = test system: LXR (liver X receptor) ligand binding domain (LXR-LBD); assay: FRET assay with LXR-LBD instead of FXR-LBD (test for comparison); type: biochemical; settings: up to 50 μM
Procedure: as §2
At a concentration of not less than 1 μM, compound A inhibited the binding between FXR-LBD and SRC-1 induced in the presence of CDCA (attenuation of FRET fluorescent intensity). For a test for comparison, a similar experiment was conducted using LXR (liver X receptor) ligand binding domain (LXR-LBD) instead of FXR-LBD.

CYP7A gene = assay: Northern blot of CYP7A gene expression in hamster liver; type: in vivo; settings: 14 days
Procedure: as §3
(§7) The total RNA was prepared from animal tissues by AGPC method. The prepared total RNA was electrophoresed on an agarose gel containing 6% formaldehyde and transferred onto a nylon membrane by a capillary blotting method. This membrane was hybridized with ^32P-labeled hamster CYP7A or I-BABP probe in 50% formamide at 42° C. for 16 h and the amounts of CYP7A and I-BABP gene expressions were measured. The CYP7A and I-BABP probes were prepared by RT-PCR method from RNA derived from the liver and the ileum, respectively, of the hamsters.

[7] = test system: CYP7A protein in HepG2 cells; assay: CYP7A protein in HepG2 cells by Western blot; type: cell-based, human; settings: CDCA 20 μM, compound A 0.03-10 μM, 16 h
Procedure: as §4, §5, §6
3) treatment with CDCA (20 μM), treatment with compound A (0.03, 0.1, 0.3, 1, 3, 10 μM)
After the treatment, the cells were recovered and lysed in a lysis buffer (125 mM Tris HCl (pH 8.0), 2 mM CaCl2, 2% Triton X-100) to prepare a cell lysate. The cell lysate was fractionated by SDS-PAGE, and the protein was transferred onto a PVDF membrane. The CYP7A protein was detected by Western blot analysis using an anti CYP7A antibody and an HRP (horse-radish peroxidase) conjugated 2nd antibody.

I-BABP gene = assay: Northern blot of I-BABP gene expression in hamster ileum; type: in vivo; settings: 14 days
Procedure: as §3, §7

SMILES: CC(C)(C)c1cc(C(C)(C)C)c(O)c(NC(=O)c2ccccc2)c1O [compound A, N-(3,5-di-tert-butyl-2,6-dihydroxyphenyl)benzamide]
- excretion of bile acid into the medium (HepG2 cells): promoted the excretion of bile acid
- effect on transcription activity dependent on LXR (LXR): did not influence the transcription activity
- concentration at which the binding between FXR-LBD and SRC-1 was inhibited (attenuation of FRET fluorescent intensity) [1]: not less than 1 μM
- Cmax [2]: 2010 ng/mL
- Tmax [2]: 6 h
- percent decrease in serum total cholesterol relative to the drug non-administration group ([3]; 30 mg/kg/day p.o.): 28%
- percent decrease in serum total cholesterol relative to the drug non-administration group ([3]; 100 mg/kg/day p.o.): 32%
- concentration at which FXR dependent transcription was repressed (FXR): not less than 1 μM
- mRNA level of I-BABP (Northern blot) [4]: marked decrease
- amount of CYP7A mRNA (no CDCA = 100, 20 μM CDCA = 0) [5]: 58
- effect on FRET fluorescent intensity with LXR-LBD [6]: did not affect the fluorescent intensity
- increase in mRNA level of the CYP7A gene in the liver relative to the drug non-administration group (CYP7A gene; 30 mg/kg/day p.o.): 53%
- increase in mRNA level of the CYP7A gene in the liver relative to the drug non-administration group (CYP7A gene; 100 mg/kg/day p.o.): 27%
- CYP7A protein (Western blot) [7]: Accumulation of CYP7A protein
- decrease in mRNA level of the I-BABP gene in the ileum relative to the drug non-administration group (I-BABP gene; 30 mg/kg/day p.o.): 11%
- decrease in mRNA level of the I-BABP gene in the ileum relative to the drug non-administration group (I-BABP gene; 100 mg/kg/day p.o.): 16%
